Test results as given in ChEMBL document CHEMBL1141229, “On the use of nonfluorescent dye labeled ligands in FRET-based receptor binding studies” (J Med Chem, 2005).

Molecular target: Muscarinic acetylcholine receptor M1 (Homo sapiens, UniProt P11229)
Experiment: Displacement of [3H]QNB from EGFP(delta-17)human M1 receptor expressed in HEK cells
Format: cell-based
Settings: hek293

Muscarinic acetylcholine receptor M1, sequence (P11229 whole entry, looked up): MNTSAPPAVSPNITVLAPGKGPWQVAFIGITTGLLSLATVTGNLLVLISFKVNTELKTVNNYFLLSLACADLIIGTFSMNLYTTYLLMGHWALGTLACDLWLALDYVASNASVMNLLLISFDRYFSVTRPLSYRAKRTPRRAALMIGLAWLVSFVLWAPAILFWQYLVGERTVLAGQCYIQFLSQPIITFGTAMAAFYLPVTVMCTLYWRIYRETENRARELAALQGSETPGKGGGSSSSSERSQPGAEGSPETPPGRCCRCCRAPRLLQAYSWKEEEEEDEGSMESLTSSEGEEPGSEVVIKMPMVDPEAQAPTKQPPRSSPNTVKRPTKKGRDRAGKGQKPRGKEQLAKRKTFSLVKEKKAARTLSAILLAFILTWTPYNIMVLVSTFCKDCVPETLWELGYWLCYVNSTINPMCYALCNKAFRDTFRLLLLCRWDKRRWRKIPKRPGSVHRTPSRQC

SMILES | Ki [nM]
CCN1/C(=C/C=C/c2ccc3cc(NC(=O)CCCCC(=O)O)ccc3[n+]2CC)C=Cc2ccccc21 | > 10000
CCN(CC)c1ccc([C+](c2ccc(N(CC)CC)cc2)c2ccc(S(=O)(=O)NCCCCCC(=O)O)cc2S(=O)(=O)[O-])cc1 | > 10000
O=C(CCCCCNC(=O)CCc1ccc2n1[B-](F)(F)[N+]1=C(c3cccs3)C=CC1=C2)NCCCCN1CCN(CC(=O)N2c3ccccc3C(=O)Nc3cccnc32)CC1 | 69.7

Further compounds by falling Ki, results first:

Ki [nM] | SMILES
189 | CCN(CC)c1ccc([C+](c2ccc(N(CC)CC)cc2)c2ccc(S(=O)(=O)NCCCCCC(=O)NCCOCCOCCN3CCN(CC(=O)N4c5ccccc5C(=O)Nc5cccnc54)CC3)cc2S(=O)(=O)[O-])cc1
53.5 | CCN(CC)c1ccc2c(-c3ccc(S(=O)(=O)NCCCCCC(=O)NCCOCCOCCN4CCN(CC(=O)N5c6ccccc6C(=O)Nc6cccnc65)CC4)cc3S(=O)(=O)[O-])c3ccc(=[N+](CC)CC)cc-3oc2c1
29.4 | CCN1/C(=C/C=C/c2ccc3cc(NC(=O)CCCCC(=O)NCCOCCOCCN4CCN(CC(=O)N5c6ccccc6C(=O)Nc6cccnc65)CC4)ccc3[n+]2CC)C=Cc2ccccc21
